This is an account of results in paper PMC4122355, “Inhibitor of the Tyrosine Phosphatase STEP Reverses Cognitive Deficits in a Mouse Model of Alzheimer's Disease” (PLoS Biology, 2014).

Molecules are shown by their SMILES. Read-outs that look alike come from different tables or passages of the source.

The test system of data set [1] is GluN2B (Y1472), Pyk2 (Y402), ERK1/2 (Y204/187) in cortical neurons. Kind of data set: Tyr phosphorylation of STEP substrates in cortical neuronal cultures (Western blot). Format: cell-based, rat. To be noted: 1 µM dose, 1 h, relative to vehicle. As for the experimental part: (§1) Primary cortical neurons were isolated from Sprague Dawley rat embryos (E18) (Charles River Laboratories, Wilmington, MA) as previously described. In some experiments, cortical neurons were made from WT and STEP KO mouse embryos (E18). Neurons were allowed to grow for 18–21 d in CO2 incubator before addition of compounds at indicated doses for 1 h. Immediately following treatments, neurons were lysed in RadioImmuno Precipitation Assay (RIPA) buffer supplied with protease inhibitor cocktail (Roche Applied Science, Indianapolis, IN) and phosphatase inhibitors (NaF and Na3VO4). All experiments were replicated four times with four independent batches of cultures.
(§2) Samples were prepared and resolved by SDS-PAGE, transferred to nitrocellulose membrane, and incubated with phospho-specific antibodies (anti-pY^204/187 ERK1/2, anti-pY^402 Pyk2, anti-pY^1472 GluN2B) or total protein antibodies (anti-ERK2, anti-Pyk2, and anti-NR2B) overnight at 4°C. Immunoreactivity was visualized using a Chemiluminescent substrate kit (Pierce Biotechnology, Rockford, IL) and detected using a G:BOX with the image program GeneSnap (Syngene, Cambridge, UK). All densitometric quantifications were performed using the Genetools program.
(Immunoblotting shows a protein as a band on a membrane.)

In data set [2] the test system is GluN2B (Y1472), Pyk2 (Y402), ERK1/2 (Y204/187) in cortex. The data set is described as follows: Tyr phosphorylation of STEP substrates in cortex of WT mice after i.p. injection. To be noted: C57BL/6 mice, 1 mg/kg i.p., 3 h postinjection, relative to vehicle. The format is in vivo, mouse. As for the experimental part:
Wild-type, male C57BL/6 mice (3–6 mo) were used for all studies. […] Cortical tissues were dissected out 3 h postinjection and processed for subcellular fractionation. […] Homogenates were centrifuged at 800 × g to remove nuclei and large debris (P1). Synaptosomal fractions (P2) were prepared from S1 by centrifugation at 9,200 × g for 15 min. The P2 pellet was washed twice and was resuspended in TEVP buffer. […] Samples were prepared and resolved by SDS-PAGE, transferred to nitrocellulose membrane, and incubated with phospho-specific antibodies (anti-pY^204/187 ERK1/2, anti-pY^402 Pyk2, anti-pY^1472 GluN2B) or total protein antibodies (anti-ERK2, anti-Pyk2, and anti-NR2B) overnight at 4°C. Immunoreactivity was visualized using a Chemiluminescent substrate kit (Pierce Biotechnology, Rockford, IL) and detected using a G:BOX with the image program GeneSnap (Syngene, Cambridge, UK). All densitometric quantifications were performed using the Genetools program.

For data set [3] the following is noted: cited from earlier work.
The test system of data set [4] is GluN2B Y1472, Pyk2 Y402, ERK1/2 Y204/187 in WT and STEP KO cortical neurons. Kind of data set: Tyr phosphorylation of STEP substrates in WT and STEP KO mouse cortical cultures. Format: cell-based. Particulars: STEP KO cultures, 1 h; TC-2153 0.1 and 1 µM, Na3VO4 1 mM. The method, then: as §1, §2

For `S1SSSSSSS1` [Compound S8, sulfur (S8)], in data set [1], the “pERK1/2 (Y204/187), phospho-signal normalized to total protein and GAPDH” value turned out to be 1.67±0.14; the “pGluN2B (Y1472), phospho-signal normalized to total protein and GAPDH” value stood at 1.33±0.08; the “pPyk2 (Y402), phospho-signal normalized to total protein and GAPDH” value is given as 1.49±0.12. In addition, in data set [2], the “pERK1/2 in cortex (P2 fraction)” value was determined as 1.57±0.13, the “pGluN2B in cortex (P2 fraction)” value was determined as 1.31±0.11 and the “pPyk2 in cortex (P2 fraction)” value is on record as 1.46±0.14. The “Solubility in aqueous solution” value in data set [3] (stated without reference) is “poorly soluble”.
Consider `[Na+].[Na+].[Na+].[O]=[V]([O-])([O-])[O-]` [sodium orthovanadate, reference compound], for which the “Tyr phosphorylation of STEP substrates in STEP KO cortical cultures” value in data set [4] is given as “further increased the Tyr phosphorylation of these substrates”.
Take `COc1cc(CCN)c2c(c1OC)SSSSS2` [varacin, reference compound]: the “Solubility in aqueous solution” value in data set [3] was “reasonable solubility in aqueous solution”.
